Assays:
[1] = molecular target: EF-Tu (T. thermophilus) (Thermus thermophilus, UniProt Q5SHN6); test: nitrocellulose filter binding with [3H]GDP
[2] = molecular target: EF-Tu (T. thermophilus) (Thermus thermophilus, UniProt Q5SHN6, T395C); test: nitrocellulose filter binding with [3H]GDP

Nc1nc2c(ncn2[C@@H]2O[C@H](COP(=O)(O)OP(=O)(O)O)[C@@H](O)[C@H]2O)c(=O)[nH]1 [GDP]
Kd [1]: 7 nM | Kd [2]: 11 nM

Source: paper PMC3210414 (Nature structural & molecular biology, 2011)
